{"source": "patent US20100130452A1", "about": "“Use of Doxycycline in the Treatment of Idiopathic Pulmonary Fibrosis” (NATIONAL RESEARCH DEVELOPMENT CORPORATION, priority 2007, published 2010)", "molecules": {"B1": {"name": "Interferon gamma-1b: a down regulator to TGFβ (protein, UniProt P01579 24-161, looked up)", "Interferon gamma": "QDPYVKEAENLKKYFNAGHSDVADNGTLFLGILKNWKEESDRKIMQSQIVSFYFKLFKNFKDDQSIQKSVETIKEDMNVKFFNSNKKKRDDFEKLTNYSVTDLNVQRKAIHELIQVMAELSPAAKTGKRKRSQMLFRG"}}, "key": {"IPF patients": {"tested_on": "IPF patients", "details": "cited from earlier work"}, "[1]": {"tested_on": "patients (periodontal disease, malaria prevention, Pulmonary Capillary Hemangiomatosis, Q fever endocarditis)", "details": "in vivo; cited from earlier work"}, "suspected IPF patients": {"tested_on": "suspected IPF patients", "details": "human, in vivo"}, "[2]": {"tested_on": "Idiopathic Pulmonary Fibrosis patients", "assay": "Response to treatment with only doxycycline (case reports)", "assay_type": "in vivo, human", "excerpt": "Example 1 Response to Treatment with Only Doxycycline […]"}, "[3]": {"details": "Case 2, 01 Oct. 2007 (earlier date, baseline)"}, "[4]": {"details": "Case 2, 09 Jan. 2008, on doxycycline 100 mg twice a day for over 3 months"}, "[5]": {"details": "Case 4, 10 Jan. 2004 (earlier date, baseline)"}, "[6]": {"details": "Case 4, 20 Aug. 2004, after doxycycline for over 7 months"}}}
{"molecule": "CC(C)(S)[C@@H](N)C(=O)O", "note": "[D-penicillamine]", "values": [{"measurement": "Benefit of antifibrotic therapy in IPF", "setting": "IPF patients; in vivo", "result": "did not show any significant benefit"}]}
{"molecule": "Cc1ccc(=O)n(-c2ccccc2)c1", "note": "[Pirfinidone]", "values": [{"measurement": "Tolerability", "setting": "IPF patients; in vivo", "result": "well tolerated"}]}
{"molecule": "COc1cc2c(c(OC)c1OC)-c1ccc(OC)c(=O)cc1[C@@H](NC(C)=O)CC2", "note": "[colchicines]", "values": [{"measurement": "Benefit of antifibrotic therapy in IPF", "setting": "IPF patients; in vivo", "result": "did not show any significant benefit"}]}
{"molecule": "C[C@H]1c2cccc(O)c2C(=O)C2=C(O)[C@]3(O)C(=O)C(C(N)=O)=C(O)[C@@H](N(C)C)[C@@H]3[C@@H](O)[C@@H]21", "note": "[doxycycline]", "values": [{"measurement": "Harm in long-term use (ACMP conclusion)", "setting": "[1]", "result": "no evidence of harm"}, {"measurement": "Tolerability in Pulmonary Capillary Hemangiomatosis with atypical endotheliomatosis", "setting": "[1]", "result": "without any problem"}, {"measurement": "Intolerance or adverse reaction", "setting": "suspected IPF patients", "result": "no intolerance or adverse reaction"}, {"measurement": "Tolerability", "setting": "suspected IPF patients", "result": "well tolerated"}, {"measurement": "6 minute Walking distance", "setting": "[2]; [3]", "result": 980, "unit": "ft"}, {"measurement": "FVC", "setting": "[2]; [3]", "result": 1.66, "unit": "L"}, {"measurement": "6 minute Walking distance", "setting": "[2]; [4]", "result": 1155, "unit": "ft"}, {"measurement": "FVC", "setting": "[2]; [4]", "result": 1.92, "unit": "L"}, {"measurement": "FEV1", "setting": "[2]; [5]", "result": 1.15}, {"measurement": "FVC", "setting": "[2]; [5]", "result": 2.12}, {"measurement": "TLCO(%)", "setting": "[2]; [5]", "result": 49.4, "unit": "%"}, {"measurement": "TLCO/VA", "setting": "[2]; [5]", "result": 102.6}, {"measurement": "VA", "setting": "[2]; [5]", "result": 3.76}, {"measurement": "FVC", "setting": "[2]; Case 4, 20 Aug. 2004, after doxycycline 100 mg twice a day for over 7 months", "result": 2.45}, {"measurement": "FEV1", "setting": "[2]; [6]", "result": 1.51}, {"measurement": "TLCO(%)", "setting": "[2]; [6]", "result": 58.9, "unit": "%"}, {"measurement": "TLCO/VA", "setting": "[2]; [6]", "result": 127.9}, {"measurement": "VA", "setting": "[2]; [6]", "result": 3.59}]}
{"molecule": "doxycycline hyclate [doxycycline hyclate (Periostat)]", "values": [{"measurement": "Safety in clinical studies", "setting": "[1]", "result": "safe"}]}
{"molecule": "B1", "values": [{"measurement": "Lung volume, gas exchange and symptoms", "setting": "IPF patients; one year study", "result": "increase"}, {"measurement": "Efficacy in IPF", "setting": "IPF patients; recent double blind controlled trial", "result": "ruled out its efficacy"}]}
